Where two headings read alike, the source gives them in different places.
Columns and labels:
[1] = tested on: rats; format: in vivo, rat; details: rats of the MAP/HR figures, 2×ED50, tail vein; same value in min
Outline: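 Hemodynamic stability judged from mean arterial pressure and heart rate, recorded at 15 s intervals over 30 min pre- and post-dose. Dosing was through a tail-vein indwelling catheter in rats carrying implanted aortic/ventricular catheters and ECG wires, operated ≥1 week earlier.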

[2] = tested on: rats
Protocol: Adult male Sprague-Dawley rats (250-300 g) were selected for the experiment. […] The anesthesia effects of the compounds were assessed in rats using a LORR assay and a period >30 s was considered as an indicator of general anesthesia. Then the up and down method was used to determine 50% effective dose (ED50). The drugs were administered through the tail vein of rats in a volume of 0.6 mL and at a rate of 0.1 mL/s.

[3] = tested on: rats; test: Loss of righting reflexes (LORR) assay in rats, ED50 by up and down method; format: in vivo, rat; details: tail vein, class symbols; for ED50: Rattus norvegicus
Outline: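 ED50 obtained by up-and-down dosing, with righting-reflex loss over 30 s counted as general anesthesia. Compounds injected into the tail vein (0.1 mL/s) of male Sprague-Dawley rats weighing 250-300 g.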

[4] = tested on: rats; details: continuous tail vein infusion at 2×MIR, LORR maintained 1 hour, Table E4
Protocol: Pharmacological Effects of the Compounds on Continuous Infusion in Rats
Adult male Sprague-Dawley rats with body weight ranging from 250 to 300 gm were selected for continuous infusion test. […] Time to recovery of righting reflex from stopping infusion, and time to fully awake from stopping infusion were recorded.

[5] = tested on: rats; test: Pharmacological characteristics at equivalent doses (2×ED50) in rats; details: 2×ED50, tail vein; for Adverse reactions: Red urine (incidence): DMSO solution (DMSO alone 10/10); for Adverse reactions: Tremor (incidence): animals affected/animals; for Onset time: time of LORR
Outline: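 Anesthesia onset, recorded as time of LORR, was measured after a 2×ED50 tail-vein injection (0.6 mL, 0.1 mL/s). Animals were male Sprague-Dawley rats of 250-300 g, n=8.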

[6] = tested on: rats; format: in vivo, rat; details: rats of the MAP/HR figures, 2×ED50, tail vein

## CCOC(=O)c1c(Cl)nc(Cl)n1[C@H](C)c1ccccc1 [Compound E129]
[1]
  recovery time of the test animals' righting reflex: 0.87 min
[2]
  Approximate therapeutic index: >30
  Minimal lethal dose: >9 mg/kg
[3]
  ED50: 0.1 to 0.5 mg/kg
[4]
  Onset time: 3 to 4 min
  Recovery time after stopping infusion: 8 to 13 min
  Types and incidence of adverse reactions: No
[5]
  Righting reflex duration: 0.68 ± 0.34 min
  Adverse reactions: Red urine (incidence): urine (8/8)
  Adverse reactions: Tremor (incidence): (3/8), Red
  Onset time: 0.87 ± 0.26 min
[6]
  recovery time of the test animals' righting reflex: 52 s

## C[C@H](c1ccccc1)n1cnc(F)c1C(=O)OC1CSC1 [Compound E11]
[1]
  recovery time of the test animals' righting reflex: 1.55 min
[2]
  Approximate therapeutic index: >60
  Minimal lethal dose: >4 mg/kg
[3]
  ED50: 0.01 to 0.1 mg/kg
[5]
  Righting reflex duration: 1.52 ± 0.53 min
  Adverse reactions: Red urine (incidence): (8/8)
  Onset time: 0.57 ± 0.25 min
[6]
  recovery time of the test animals' righting reflex: 93 s

## C[C@H](c1ccccc1)n1cnc(F)c1C(=O)OC1COC1 [Compound E10]
[1]
  recovery time of the test animals' righting reflex: 2.70 min
[2]
  Approximate therapeutic index: >14
  Minimal lethal dose: >10 mg/kg
[3]
  ED50: 0.5 to 1 mg/kg
[5]
  Righting reflex duration: 2.59 ± 0.85 min
  Adverse reactions: Red urine (incidence): (8/8)
  Onset time: 0.21 ± 0.05 min
[6]
  recovery time of the test animals' righting reflex: 162 s

## CCC(C)(CC)OC(=O)c1c(F)ncn1[C@H](C)c1ccccc1 [Compound E30]
[1]
  recovery time of the test animals' righting reflex: 1.33 min
[2]
  Approximate therapeutic index: >42
  Minimal lethal dose: >6 mg/kg
[3]
  ED50: 0.1 to 0.5 mg/kg
[5]
  Righting reflex duration: 1.23 ± 0.58 min
  Adverse reactions: Red urine (incidence): (8/8)
  Onset time: 0.60 ± 0.18 min
[6]
  recovery time of the test animals' righting reflex: 80 s

## C[C@H](c1ccccc1)n1cnc(F)c1C(=O)OC1CCC1 [Compound E9]
[1]
  recovery time of the test animals' righting reflex: 1.28 min
[2]
  Approximate therapeutic index: >48
  Minimal lethal dose: >6 mg/kg
[3]
  ED50 (mg/kg): B (B means that the measured ED50 is in the range of 0.10-0.50 mg/kg (excluding 0.10 mg/kg, including 0.50 mg/kg).)
[5]
  Righting reflex duration: 1.24 ± 0.79 min
  Sedation duration (mg/kg): 9.29 ± 2.07
  Adverse reactions: Red urine (incidence): (8/8)
  Onset time: 0.42 ± 0.20 min
[6]
  recovery time of the test animals' righting reflex: 77 s

## C=C=CC(C)(C)OC(=O)c1c(F)ncn1[C@H](C)c1ccccc1 [Compound E19]
[1]
  recovery time of the test animals' righting reflex: 0.93 min
[2]
  Approximate therapeutic index: >40
  Minimal lethal dose: >4 mg/kg
[3]
  ED50: 0.01 to 0.1 mg/kg
[5]
  Righting reflex duration: 0.80 ± 0.30 min
  Adverse reactions: Red urine (incidence): urine (8/8)
  Adverse reactions: Tremor (incidence): (3/8), Red
  Onset time: 0.34 ± 0.13 min
[6]
  recovery time of the test animals' righting reflex: 56 s

## CC#CC1(OC(=O)c2c(F)ncn2[C@H](C)c2ccccc2)COC1 [Compound E15]
[1]
  recovery time of the test animals' righting reflex: 1.20 min
[2]
  Approximate therapeutic index: >32
  Minimal lethal dose: >5 mg/kg
[3]
  ED50: 0.1 to 0.5 mg/kg
[5]
  Righting reflex duration: 1.10 ± 0.89 min
  Adverse reactions: Red urine (incidence): urine (8/8)
  Adverse reactions: Tremor (incidence): (2/8), Red
  Onset time: 0.42 ± 0.13 min
[6]
  recovery time of the test animals' righting reflex: 72 s

## C=CC#CC(C)(C)OC(=O)c1c(F)ncn1[C@H](C)c1ccccc1 [Compound E21]
[1]
  recovery time of the test animals' righting reflex: 2.58 min
[2]
  Approximate therapeutic index: >12
  Minimal lethal dose: >9 mg/kg
[3]
  ED50 (mg/kg): C (C indicates that the measured ED50 is in the range of 0.50-1.00 mg/kg (excluding 0.50 mg/kg, including 1.00 mg/kg).)
[5]
  Righting reflex duration: 2.76 ± 2.17 min
  Sedation duration (mg/kg): 7.71 ± 3.03
  Adverse reactions: Red urine (incidence): (8/8)
  Onset time: 0.49 ± 0.20 min
[6]
  recovery time of the test animals' righting reflex: 155 s

## C[C@H](c1ccccc1)n1cnc(F)c1C(=O)OC1(C)CCC1 [Compound E27]
[1]
  recovery time of the test animals' righting reflex: 4.10 min
[2]
  Approximate therapeutic index: >24
  Minimal lethal dose: >6 mg/kg
[3]
  ED50 (mg/kg): B (B means that the measured ED50 is in the range of 0.10-0.50 mg/kg (excluding 0.10 mg/kg, including 0.50 mg/kg).)
[5]
  Righting reflex duration: 4.13 ± 1.12 min
  Sedation duration (mg/kg): 10.23 ± 1.60
  Adverse reactions: Red urine (incidence): (8/8)
  Onset time: 0.31 ± 0.10 min
[6]
  recovery time of the test animals' righting reflex: 246 s

## C#CC(C)(C)OC(=O)c1c(F)ncn1[C@H](C)c1ccccc1 [Compound E25]
[1]
  recovery time of the test animals' righting reflex: 2.23 min
[2]
  Approximate therapeutic index: >24
  Minimal lethal dose: >6 mg/kg
[3]
  ED50: 0.1 to 0.5 mg/kg
[5]
  Adverse reactions: Restlessness (incidence): (2/8), Red
  Righting reflex duration: 2.10 ± 0.86 min
  Adverse reactions: Red urine (incidence): urine (8/8)
  Onset time: 0.25 ± 0.09 min
[6]
  recovery time of the test animals' righting reflex: 134 s

## C=C=CC(C)OC(=O)c1c(F)ncn1[C@H](C)c1ccccc1 (stereo partly shown) [Compound E18]
[1]
  recovery time of the test animals' righting reflex: 2.63 min
[2]
  Approximate therapeutic index: >20
  Minimal lethal dose: >1 mg/kg
[3]
  ED50: 0.01 to 0.1 mg/kg
[5]
  Righting reflex duration: 2.51 ± 1.69 min
  Adverse reactions: Red urine (incidence): (8/8)
  Onset time: 0.40 ± 0.20 min
[6]
  recovery time of the test animals' righting reflex: 158 s

## CC#CC(C)(C)OC(=O)c1c(F)ncn1[C@H](C)c1ccccc1 [Compound E17]
[1]
  recovery time of the test animals' righting reflex: 3.27 min
[2]
  Approximate therapeutic index: >32
  Minimal lethal dose: >9 mg/kg
[3]
  ED50: 0.1 to 0.5 mg/kg
[5]
  Adverse reactions: Muscle twitching (incidence): (1/8),
  Righting reflex duration: 3.12 ± 1.61 min
  Adverse reactions: Red urine (incidence): (8/8)
  Onset time: 0.26 ± 0.07 min
[6]
  recovery time of the test animals' righting reflex: 196 s

## C=CC1(OC(=O)c2cncn2[C@H](C)c2ccccc2)COC1 [Compound D7]
[1]
  recovery time of the test animals' righting reflex: 6.83 min
[2]
  Approximate therapeutic index: >10
  Minimal lethal dose: >6 mg/kg
[3]
  ED50: 0.5 to 1 mg/kg
[5]
  Righting reflex duration: 3.20 ± 0.81 min
  Adverse reactions: Red urine (incidence): Red urine (8/8)
  Onset time: 0.10 ± 0.01 min
[6]
  recovery time of the test animals' righting reflex: 410 s

## CC#CC(C)OC(=O)c1c(F)ncn1[C@H](C)c1ccccc1 (stereo partly shown) [Compound E16]
[1]
  recovery time of the test animals' righting reflex: 3.33 min
[2]
  Approximate therapeutic index: >20
  Minimal lethal dose: >4 mg/kg
[3]
  ED50: 0.1 to 0.5 mg/kg
[5]
  Righting reflex duration: 3.59 ± 1.22 min
  Adverse reactions: Red urine (incidence): (8/8)
  Onset time: 0.30 ± 0.09 min
[6]
  recovery time of the test animals' righting reflex: 200 s

## CCC(CC)OC(=O)c1c(F)ncn1[C@H](C)c1ccccc1 [Compound E22]
[1]
  recovery time of the test animals' righting reflex: 1.10 min
[2]
  Approximate therapeutic index: >30
  Minimal lethal dose: >4 mg/kg
[3]
  ED50 (mg/kg): B (B means that the measured ED50 is in the range of 0.10-0.50 mg/kg (excluding 0.10 mg/kg, including 0.50 mg/kg).)
[5]
  Righting reflex duration: 0.99 ± 0.70 min
  Sedation duration (mg/kg): 5.51 ± 1.13
  Adverse reactions: Red urine (incidence): urine (8/8)
  Adverse reactions: Tremor (incidence): (4/8), Red
  Onset time: 0.73 ± 0.13 min
[6]
  recovery time of the test animals' righting reflex: 66 s
